Assay results as given in ChEMBL document CHEMBL1201862, “PubChem BioAssay data set” (2004).
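Step 1: Grow cells in 96-well plates. Step 2: Expose to compound for 48 hours at 5 concentrations. Step 3: Interpolate endpoints linearly; if unreached, use highest concentration. The concentration for 50% growth inhibition is given as GI50.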 Calls of active or inactive are those of the source. Cut-off read from the data, not from the text of the source: active = GI50 up to about 1.1 µM and inactive = higher.

Experiments:
Assay in all cases: NCI anticancer screen, dose series, 48 h
[1] = test system: KM12
[2] = test system: A549
[3] = test system: DU-145
[4] = test system: K562
[5] = test system: PC-3
[6] = test system: CAKI-1
[7] = test system: SNB-75
[8] = test system: TK-10
[9] = test system: SF-539
[10] = test system: Hs-578T
[11] = test system: ACHN
[12] = test system: CCRF-CEM
[13] = test system: SN12C
[14] = test system: HCT-15
[15] = test system: LOX IMVI
[16] = test system: SNB-19
[17] = test system: UO-31
[18] = test system: SR
[19] = test system: OVCAR-5

Compound | GI50 [1] | GI50 [2] | GI50 [3] | GI50 [4] | GI50 [5] | GI50 [6] | GI50 [7] | GI50 [8] | GI50 [9] | GI50 [10] | GI50 [11] | GI50 [12] | GI50 [13] | GI50 [14] | GI50 [15] | GI50 [16] | GI50 [17] | GI50 [18] | GI50 [19]
Cc1ccc(Nc2nc(=O)c3c([nH]c4ccccc43)s2)cc1 | 3.43 µM (inactive) | 12.6 µM (inactive) | 18.6 µM (inactive) | 6.27 µM (inactive) | 15.1 µM (inactive) | 8.55 µM (inactive) | 16.1 µM (inactive) | 11.3 µM (inactive) | 15.7 µM (inactive) | 27.2 µM (inactive) | 16.2 µM (inactive) | 20.1 µM (inactive) | 15 µM (inactive) | 7.55 µM | 13 µM (inactive) | 26.4 µM (inactive) | 2.9 µM (inactive) | 4.68 µM (inactive) | –
COC(=O)[C@@H]1CN(C(=O)Cc2ccccc2)C(=O)N1 | > 100 µM (inactive) | > 100 µM (inactive) | > 100 µM (inactive) | > 100 µM (inactive) | > 100 µM (inactive) | > 100 µM (inactive) | 93.8 µM (inactive) | > 100 µM (inactive) | > 100 µM (inactive) | > 100 µM (inactive) | > 100 µM (inactive) | > 100 µM (inactive) | > 100 µM (inactive) | – | > 100 µM (inactive) | > 100 µM (inactive) | > 100 µM (inactive) | > 100 µM (inactive) | > 100 µM (inactive)
C=CCC1(O)c2cccc(O)c2C(=O)c2cccc(O)c21 (stereo not given) | 17.3 µM (inactive) | 15.8 µM (inactive) | 17.6 µM (inactive) | 6.71 µM (inactive) | 16.9 µM (inactive) | 21.7 µM (inactive) | 13.2 µM (inactive) | 23.5 µM (inactive) | 31.8 µM (inactive) | 14.9 µM (inactive) | 22.8 µM (inactive) | – | – | 12.2 µM | 16.3 µM (inactive) | – | 15.4 µM (inactive) | 6.41 µM (inactive) | 22.5 µM (inactive)
CSCCCNC(=O)c1csc(-c2csc(C(CNC(=O)OC(C)(C)C)CNC(=O)OC(C)(C)C)n2)n1 | 31 µM (inactive) | – | 76.2 µM (inactive) | 33.6 µM (inactive) | 28.4 µM (inactive) | 59.6 µM (inactive) | 35 µM (inactive) | 66.1 µM (inactive) | 45 µM (inactive) | 45.8 µM (inactive) | 30.9 µM (inactive) | 16.6 µM (inactive) | 61.8 µM (inactive) | 43.4 µM | 39.8 µM (inactive) | 58.3 µM (inactive) | 31.8 µM (inactive) | 24.4 µM (inactive) | 67 µM (inactive)
CCOP(=O)(CCC(O)CNc1nc(N)nc(Cl)c1/N=N/c1ccc(Cl)cc1)OCC (stereo not given) | 19.1 µM (inactive) | 14.5 µM (inactive) | 14.2 µM (inactive) | 13.6 µM (inactive) | 12.4 µM (inactive) | 2.96 µM (inactive) | 4.5 µM (inactive) | 14.8 µM (inactive) | > 10 µM (inactive) | 5.58 µM (inactive) | 7 µM (inactive) | 5.75 µM (inactive) | 17.2 µM (inactive) | 6.95 µM | 8.67 µM (inactive) | – | 4.1 µM (inactive) | 7.87 µM (inactive) | 17.6 µM (inactive)
CCOC(=O)CCc1c(C)c2ccc(O)cc2oc1=O | – | > 100 µM (inactive) | > 100 µM (inactive) | > 100 µM (inactive) | > 100 µM (inactive) | > 100 µM (inactive) | > 100 µM (inactive) | > 100 µM (inactive) | > 100 µM (inactive) | > 100 µM (inactive) | > 100 µM (inactive) | > 100 µM (inactive) | > 100 µM (inactive) | > 100 µM | > 100 µM (inactive) | > 100 µM (inactive) | – | > 100 µM (inactive) | > 100 µM (inactive)
CCC(=O)N(c1ccccc1)C(C)CN1CCC(O)(c2ccccc2)CC1 (stereo not given) | – | > 100 µM (inactive) | > 100 µM (inactive) | 74.1 µM (inactive) | > 100 µM (inactive) | > 100 µM (inactive) | > 100 µM (inactive) | > 100 µM (inactive) | > 100 µM (inactive) | > 100 µM (inactive) | > 100 µM (inactive) | > 100 µM (inactive) | > 100 µM (inactive) | > 100 µM | > 100 µM (inactive) | > 100 µM (inactive) | > 100 µM (inactive) | > 100 µM (inactive) | > 100 µM (inactive)
CCCCCCCCCCCCCCCC1(OC)C[N+](C)(C)CCO1 (stereo not given) | 0.586 µM (active) | 1.7 µM (inactive) | 2.35 µM (inactive) | 1.85 µM (inactive) | 2.4 µM (inactive) | 1.4 µM (inactive) | 0.0556 µM (active) | 2.45 µM (inactive) | 1.74 µM (inactive) | 1.97 µM (inactive) | 1.85 µM (inactive) | 0.637 µM (active) | 1.66 µM (inactive) | 6.01 µM | 1.26 µM (inactive) | 1.6 µM (inactive) | – | 2.25 µM (inactive) | 2.23 µM (inactive)
Cc1c(N)nc([C@H](CC(N)=O)NC[C@H](N)C(N)=O)nc1C(=O)N[C@H](C(=O)N[C@H](C)[C@@H](O)CC(=O)N[C@H](C(=O)NC(O[C@@H]1O[C@@H](C)[C@@H](N)[C@@H](O)[C@H]1O)C(O)c1nc(-c2nc(C(=O)NCCC[S+](C)C)cs2)cs1)[C@@H](C)O)[C@H](O[C@@H]1O[C@@H](CO)[C@@H](O)[C@H](O)[C@@H]1O[C@H]1O[C@H](CO)[C@@H](O)[C@H](OC(N)=O)[C@@H]1O)c1c[nH]cn1 (stereo not given in full) | 97.1 µM (inactive) | 19.7 µM (inactive) | > 100 µM (inactive) | – | 65 µM (inactive) | 73.8 µM (inactive) | 18.3 µM (inactive) | > 100 µM (inactive) | 2.2 µM (inactive) | 6.17 µM (inactive) | 0.773 µM (active) | > 100 µM (inactive) | > 100 µM (inactive) | 34.4 µM | 15.2 µM (inactive) | > 100 µM (inactive) | 26.7 µM (inactive) | 0.0109 µM (active) | > 100 µM (inactive)
Cc1cc(O)c2c(=O)c3ccccc3[nH]c2c1 | 18.5 µM (inactive) | 29.4 µM (inactive) | 35.2 µM (inactive) | 9.77 µM (inactive) | 19.3 µM (inactive) | 11.8 µM (inactive) | 29.2 µM (inactive) | 49.2 µM (inactive) | 15.7 µM (inactive) | 45.3 µM (inactive) | 21.5 µM (inactive) | 24.1 µM (inactive) | 32.5 µM (inactive) | 11.4 µM | 18.8 µM (inactive) | 38.5 µM (inactive) | – | 16 µM (inactive) | 18.9 µM (inactive)
COc1ccc(C2C=C(c3ccc4c(c3)OCO4)Oc3c2c(=O)oc2ccccc32)cc1OC (stereo not given) | 0.443 µM (active) | 1.05 µM (active) | 0.417 µM (active) | 0.299 µM (active) | 0.429 µM (active) | 0.425 µM (active) | 0.344 µM (active) | – | 0.308 µM (active) | 0.513 µM (active) | 0.627 µM (active) | 0.406 µM (active) | 1.36 µM (inactive) | 0.415 µM | 0.593 µM (active) | 0.422 µM (active) | 0.527 µM (active) | 0.236 µM (active) | 0.556 µM (active)
